Target: T1, NOX (NADPH oxidase) (Homo sapiens, UniProt P04839)
T1 construct: endogenous in cells; host or cells: HL-60 cells differentiated with 1% DMSO, used as a sonicated homogenate supernatant (A1) or as viable cells (A2)
T1 sequence (P04839 2-570 limits assumed): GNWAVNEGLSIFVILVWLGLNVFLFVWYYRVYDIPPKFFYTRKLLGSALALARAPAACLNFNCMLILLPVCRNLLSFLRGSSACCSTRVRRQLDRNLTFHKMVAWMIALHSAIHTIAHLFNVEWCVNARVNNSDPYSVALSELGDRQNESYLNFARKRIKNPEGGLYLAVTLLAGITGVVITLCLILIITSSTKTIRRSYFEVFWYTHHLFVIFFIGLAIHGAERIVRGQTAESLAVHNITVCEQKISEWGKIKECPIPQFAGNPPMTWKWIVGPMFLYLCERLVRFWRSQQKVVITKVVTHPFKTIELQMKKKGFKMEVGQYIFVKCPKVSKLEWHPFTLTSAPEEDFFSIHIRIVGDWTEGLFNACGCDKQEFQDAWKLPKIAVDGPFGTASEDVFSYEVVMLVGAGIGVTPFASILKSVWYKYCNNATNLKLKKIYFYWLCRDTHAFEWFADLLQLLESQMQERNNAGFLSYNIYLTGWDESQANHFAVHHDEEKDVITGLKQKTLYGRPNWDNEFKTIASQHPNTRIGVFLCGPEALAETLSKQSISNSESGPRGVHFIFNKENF
T1 sequence (P13498 2-195 partner limits assumed): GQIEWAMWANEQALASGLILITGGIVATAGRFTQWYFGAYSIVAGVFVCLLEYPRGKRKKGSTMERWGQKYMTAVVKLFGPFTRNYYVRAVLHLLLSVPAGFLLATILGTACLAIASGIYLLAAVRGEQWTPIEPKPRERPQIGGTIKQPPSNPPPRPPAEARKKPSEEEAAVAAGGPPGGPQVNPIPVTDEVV
Assay: NOX activity measurement in a cell-free system using a homogenate of differentiated HL-60 cells (NADPH consumption, fluorometry)
Assay type: biochemical
Settings: Example 4; cell-free system using a homogenate of differentiated HL-60 cells; methoxyflavonoid comparison; read-out: IC50 (μM), NOX inhibitory activity
Source text: Human myeloid leukemia cell HL-60 repeats proliferation in an undifferentiated state but upon addition of DMSO (dimethyl sulfoxide), retinoic acid or the like, it is known to differentiate into mature granulocytes and lose the ability to proliferate, as accompanied by intracellular expression of NOX (NADPH oxidase) which also serves as an index for differentiation; the expressed NOX can be utilized as an enzyme source for evaluating NOX inhibitory activity.
To induce differentiation into NOX expressing granulocytes, undifferentiated HL-60 cells cultured in a 10% FBS supplemented RPMI 1640 medium were suspended in a 1% DMSO containing, 10% FBS supplemented RPM 11640 medium to give a density of 5×10^5 cells/ml, and the suspension was distributed among Petri dishes (i.d. 10 cm) in 15 ml portions and cultured in a CO2 incubator (37° C.) for three days; thereafter, 10 ml of a 1% DMSO containing, 10% FBS supplemented RPM 11640 medium was added into each of the Petri dishes and culture was performed for an additional three days, thus yielding differentiated HL-60 cells in which NOX was expressed. As described below, the differentiated HL-60 cells, either as a homogenate or in a viable state, were subjected to NOX activity measurement.
After being cooled with ice, the suspension was treated with a sonicator (Bioruptor UCD-250 HSA; product of Cosmo Bio Co., Ltd.) by repeating three cycles of a process under the condition of 4° C. or below that consisted of 20-sec disrupting at maximum power and 30-sec interval cooling, whereupon a cell homogenate was obtained. The homogenate was centrifuged at 1000 g for 4 minutes to remove debris; to the resulting supernatant, nine volumes of a reaction buffer (65 mM phosphate buffered solution containing 1 mM EGTA, 10 μM FAD and 170 mM sucrose; pH 7.0) were added to prepare a homogenate's supernatant for NOX activity measurement (equivalent to 1×10^7 cells/ml).
For reaction with NOX, 50 μl of the above-described cell homogenate was poured into each well of a 96-well microplate and after adding 25 μl of a 0.5 mM SDS solution as a NOX activator and 25 μl of a 0.4 mM NADPH solution as a substrate, the reaction was carried out at 25° C. for 30-90 minutes. The NOX activity was determined by measuring the rate of NADPH consumption through fluorometry (Ex: 355 nm/Em: 460 nm).

Row | Structure (SMILES) | IC50 [µM]
1 | COc1cccc(/C=C/C(=O)c2ccccc2O)c1OC [2,3-Dimethoxy-2′-hydroxychalcone] | > 100
2 | COc1ccc(CCC(=O)c2c(O)cc(OC)cc2O)cc1 [2′,6′-Dihydroxy-4,4′-dimethoxydihydrochalcone] | > 100
3 | COc1cc(O)c(C(=O)/C=C/c2ccccc2)c(O)c1 [2′,6′-Dihydroxy-4′-methoxychalcone] | > 100
4 | COc1ccc2c(=O)c(OC)c(-c3ccc(OC)c(OC)c3)oc2c1 [3,7,3′,4′-tetramethoxyflavone] | > 100
5 | CC(=O)c1cc2ccccc2oc1=O [3-Acetylcoumarin] | > 100
6 | O=c1cc(-c2ccc(O)c(O)c2)oc2ccccc12 [3′,4′-Dihydroxyflavone] | 75
7 | COc1ccc(-c2cc(=O)c3ccccc3o2)cc1OC [3′,4′-Dimethoxyflavone] | 15
8 | COc1ccc(/C=C/C(=O)c2ccccc2)cc1 [4-Methoxychalcone] | > 100
9 | COc1ccc(C(=O)/C=C/c2ccccc2)cc1 [4′-Methoxychalcone] | > 100
10 | COc1cc(-c2cc(=O)c3c(OC)c(OC)c(OC)cc3o2)cc(OC)c1OC [5,6,7,3′,4′,5′-Hexamethoxyflavone] | ~100
11 | COc1ccc(-c2cc(=O)c3c(OC)c(OC)c(OC)c(OC)c3o2)cc1OC [5,6,7,8,3′,4′-Hexamethoxyflavone] | 80
12 | COc1cc(OC)c2c(=O)cc(-c3cc(OC)c(OC)c(OC)c3)oc2c1 [5,7,3′,4′,5′-Pentamethoxyflavone] | > 100
13 | COc1ccc(-c2oc3cc(O)cc(O)c3c(=O)c2OC)cc1O [5,7,3′-Trihydroxy-3,4′-dimethoxyflavone] | ~100
14 | COc1cc(C2CC(=O)c3c(O)cc(O)cc3O2)cc(OC)c1OC (centres unmarked) [5,7-Dihydroxy-3′,4′,5′-trimethoxyflavanone] | > 100
15 | COc1cc(C)c2c(=O)c(-c3ccccc3)coc2c1 [5-Methyl-7-methoxy-isoflavone] | > 100
16 | O=c1cc(-c2ccc(O)c(O)c2)oc2c(O)c(O)ccc12 [7,8,3′,4′-Tetrahydroxyflavone] | ~100
17 | COc1ccc(-c2cc(=O)c3ccc(OC)c(OC)c3o2)cc1OC [7,8,3′,4′-Tetramethoxyflavone] | ~100
18 | COc1cc2ccc(=O)oc2c(C(C)=O)c1OC [8-Acetyl-6,7-dimethoxycoumarin] | > 100
19 | COc1c(O)cc2ccc(=O)oc2c1C(C)=O [8-Acetyl-6-hydroxy-7-methoxycoumarin] | > 100
20 | CC(=O)c1c(O)ccc2ccc(=O)oc12 [8-Acetyl-7-hydroxycoumarin] | > 100
21 | COc1ccc2ccc(=O)oc2c1C(C)=O [8-Acetyl-7-methoxycoumarin] | > 100
22 | COc1cc(OC)c2c(=O)cc(-c3ccc(OC)c(OC)c3)oc2c1 [KPEt-21, 5,7,3′,4′-Tetramethoxyflavone] | 8
23 | COc1cc(OC)c2c(=O)c(OC)c(-c3ccc(OC)c(OC)c3)oc2c1 [KPEt-22, 3,5,7,3′,4′-Pentamethoxyflavone] | 23
24 | CC(=O)OC(C)(C)[C@@H]1Cc2c(ccc3ccc(=O)oc23)O1 [o-Acetylcolumblanetin] | 19

Same assay, conditions: Example 5; cell-free system using a homogenate; compounds extracted and fractionated from black ginger; read-out: NOX inhibition IC50

Row | Structure (SMILES) | IC50 [µM]
25 | COc1cc(OC)c2c(=O)cc(-c3ccc(OC)c(OC)c3)oc2c1 [KPEt-21, 5,7,3′,4′-Tetramethoxyflavone] | 38
26 | COc1cc(OC)c2c(=O)c(OC)c(-c3ccc(OC)c(OC)c3)oc2c1 [KPEt-22, 3,5,7,3′,4′-Pentamethoxyflavone] | 70
27 | COc1cc(OC)c2c(=O)cc(-c3ccccc3)oc2c1 [KPEt-23, 5,7-Dimethoxyflavone] | 53
28 | COc1ccc(-c2cc(=O)c3c(OC)cc(OC)cc3o2)cc1 [KPEt-25, 5,7,4′-Trimethoxyflavone] | 53
29 | COc1cc(O)c2c(=O)c(OC)c(-c3ccc(OC)c(OC)c3)oc2c1 [KPEt-41, 5-hydroxy-3,7,3′,4′-Tetramethoxyflavone] | > 100
30 | COc1cc(OC)c2c(=O)c(OC)c(-c3ccccc3)oc2c1 [KPEt-261, 3,5,7-Trimethoxyflavone] | > 100
31 | COc1ccc(-c2oc3cc(OC)cc(OC)c3c(=O)c2OC)cc1 [KPEt-262, 3,5,7,4′-Tetramethoxyflavone] | > 100
32 | COc1cc(O)c2c(=O)cc(-c3ccccc3)oc2c1 [KPEt-421, 5-hydroxy-7-Methoxyflavone] | > 100
33 | COc1ccc(-c2cc(=O)c3c(O)cc(OC)cc3o2)cc1 [KPEt-422, 5-hydroxy-7,4′-Dimethoxyflavone] | > 100
34 | COc1cc(O)c2c(=O)c(OC)c(-c3ccccc3)oc2c1 [KPEt-431, 5-hydroxy-3,7-Dimethoxyflavone] | > 100
35 | COc1ccc(-c2oc3cc(OC)cc(O)c3c(=O)c2OC)cc1 [KPEt-432, 5-hydroxy-3,7,4′-Trimethoxyflavone] | > 100

Same assay, conditions: Example 5; share of the black ginger extract's NOX inhibitory activity per compound

Row | Structure (SMILES) | NOX inhibitory activity (distribution %) [%]
36 | COc1cc(OC)c2c(=O)cc(-c3ccc(OC)c(OC)c3)oc2c1 [KPEt-21, 5,7,3′,4′-Tetramethoxyflavone] | 12
37 | COc1cc(OC)c2c(=O)c(OC)c(-c3ccc(OC)c(OC)c3)oc2c1 [KPEt-22, 3,5,7,3′,4′-Pentamethoxyflavone] | 45
38 | COc1cc(OC)c2c(=O)cc(-c3ccccc3)oc2c1 [KPEt-23, 5,7-Dimethoxyflavone] | 19
39 | COc1ccc(-c2cc(=O)c3c(OC)cc(OC)cc3o2)cc1 [KPEt-25, 5,7,4′-Trimethoxyflavone] | 21

Same assay, conditions: cell-free system using a homogenate

Row | Structure (SMILES) | NOX inhibitory activity (in words)
40 | COc1ccc(-c2cc(=O)c3c(OC)c(OC)c(OC)c(OC)c3o2)cc1OC [5,6,7,8,3′,4′-Hexamethoxyflavone] | not found to have any strong NOX inhibitory activity
41 | COc1cc(OC)c2c(=O)cc(-c3ccc(OC)c(OC)c3)oc2c1 [KPEt-21, 5,7,3′,4′-Tetramethoxyflavone] | strong NOX inhibitory activity
42 | COc1cc(OC)c2c(=O)c(OC)c(-c3ccc(OC)c(OC)c3)oc2c1 [KPEt-22, 3,5,7,3′,4′-Pentamethoxyflavone] | strong NOX inhibitory activity

Test system: NFκB
Assay: NFκB inhibiting action: nitrous acid production in LPS-stimulated RAW 264.7 cells (Griess reagent)
Assay type: cell-based
Settings: Mus musculus, RAW264.7, 24 h; read-out: NFκB inhibition IC50
Protocol: It is known that when macrophage-like RAW 264.7 cells are stimulated with LPS (lipopolysaccharide), NFκB is activated, whereby the expression of iNOS (inducible NO synthetase) is enhanced, causing nitrous acid to accumulate in the culture broth due to the enzymatic activity of iNOS; the activation of NFκB can therefore be evaluated by measuring the buildup of nitrous acid in the culture broth.
RAW 264.7 cells were cultured in a 10% FBS supplemented RPMI 1640 culture broth. The cells were then suspended in the same culture broth to give a density of 4×10^5 cells/ml; the suspension was distributed on a 96-well microplate in 100 μl portions per well and subjected to pre-culture (in a CO2 incubator) for 24 hr. […] To measure NFκB inhibitory activity, a DMSO solution of each test sample was dissolved in the foregoing culture broth to make 3-fold serial dilutions having DMSO concentrations of 1% and less and absorbance was measured with and without adding the stimulant LPS.

Row | Structure (SMILES) | IC50 [µM]
43 | COc1cc(OC)c2c(=O)cc(-c3ccc(OC)c(OC)c3)oc2c1 [KPEt-21, 5,7,3′,4′-Tetramethoxyflavone] | 6
44 | COc1cc(OC)c2c(=O)c(OC)c(-c3ccc(OC)c(OC)c3)oc2c1 [KPEt-22, 3,5,7,3′,4′-Pentamethoxyflavone] | 32
45 | COc1cc(OC)c2c(=O)cc(-c3ccccc3)oc2c1 [KPEt-23, 5,7-Dimethoxyflavone] | 7
46 | COc1ccc(-c2cc(=O)c3c(OC)cc(OC)cc3o2)cc1 [KPEt-25, 5,7,4′-Trimethoxyflavone] | 7
47 | COc1cc(O)c2c(=O)c(OC)c(-c3ccc(OC)c(OC)c3)oc2c1 [KPEt-41, 5-hydroxy-3,7,3′,4′-Tetramethoxyflavone] | 55
48 | COc1cc(OC)c2c(=O)c(OC)c(-c3ccccc3)oc2c1 [KPEt-261, 3,5,7-Trimethoxyflavone] | 27
49 | COc1ccc(-c2oc3cc(OC)cc(OC)c3c(=O)c2OC)cc1 [KPEt-262, 3,5,7,4′-Tetramethoxyflavone] | 32
50 | COc1cc(O)c2c(=O)cc(-c3ccccc3)oc2c1 [KPEt-421, 5-hydroxy-7-Methoxyflavone] | 42
51 | COc1ccc(-c2cc(=O)c3c(O)cc(OC)cc3o2)cc1 [KPEt-422, 5-hydroxy-7,4′-Dimethoxyflavone] | 56
52 | COc1cc(O)c2c(=O)c(OC)c(-c3ccccc3)oc2c1 [KPEt-431, 5-hydroxy-3,7-Dimethoxyflavone] | 29
53 | COc1ccc(-c2oc3cc(OC)cc(O)c3c(=O)c2OC)cc1 [KPEt-432, 5-hydroxy-3,7,4′-Trimethoxyflavone] | 30

From patent US20170071902A1, “NOX INHIBITOR AND NFkB INHIBITOR CONTAINING METHOXYFLAVONE” (SUNTORY HOLDINGS LIMITED, priority 2014, published 2017)
